Measured values taken from US7282213B2, “Method for applying a drug coating to a medical device” (Medtronic, Inc., priority 2002, dated 2007).

Test: HPLC check for drug degradation after thermal processing of the electrode coating
Type: physicochemical
Settings: coating heated to solid-state phase change (hot air tool), dissolved from electrode in solvent, compared to control solution
Source text: Prior attempts at heating a drug to form a more durable drug coating on an electrode surface have been less successful because the drug may degrade during the heating process due to overheating. One advantage of the present invention is that the controlled heating process, using a focused, direct heat source, achieves a change in solid state and micro-crack healing forming a conformable crystalline coating with a decrease in the defect density, without degrading the drug. […] Electrodes coated with beclomethasone dipropionate, according to the thermal processing methods described above and shown in FIG. 3, have been soaked in a solvent to dissolve the drug coating from the electrode surface. The resulting test solution was analyzed using HPLC and compared to HPLC results from a control sample of beclomethasone dipropionate in solution. Chromatograms of the test solution samples were identical to those of the control samples with regards to retention time of the major peak.

CCC(=O)OCC(=O)[C@@]1(OC(=O)CC)[C@@H](C)C[C@H]2[C@@H]3CCC4=CC(=O)C=C[C@]4(C)[C@@]3(Cl)[C@@H](O)C[C@@]21C [beclomethasone dipropionate anhydrous]
degradation products by HPLC after thermal processing: no peaks associated with degradation products were observed
